The values that follow come from ChEMBL document CHEMBL3046856, “Synthesis and fungicidal activity of novel pimprinine analogues” (2012).

What all share (type): functional
One test deals with Uromyces viciae-fabae. The test is described as follows: Fungicidal activity against Uromyces viciae-fabae infected compound pre-treated bean leaf pieces assessed as control of disease or pathogen at 100 ppm measured after 5 to 14 days by leaf-piece assay.
Test [1] relates to Pythium dissimile. Briefly: Fungicidal activity against Pythium dissimile grown on compound supplemented artificial media assessed as control of disease or pathogen at 20 ppm measured after 5 to 14 days by artificial media assay.
The test system of test [2] is Pythium dissimile. Briefly: Fungicidal activity against Pythium dissimile grown on compound supplemented artificial media assessed as control of disease or pathogen at 2 ppm measured after 5 to 14 days by artificial media assay.
Test [3] relates to Alternaria solani. The test is described as follows: Fungicidal activity against Alternaria solani grown on compound supplemented artificial media assessed as control of disease or pathogen at 2 ppm measured after 5 to 14 days by artificial media assay.
The nature of test [4]: Fungicidal activity against Zymoseptoria tritici infected on compound pre-treated wheat leaf pieces assessed as control of disease or pathogen at 100 ppm measured after 5 to 14 days by leaf-piece assay.
Test [5] concerns Alternaria solani. The test is described as follows: Fungicidal activity against Alternaria solani grown on compound supplemented artificial media assessed as control of disease or pathogen at 20 ppm measured after 5 to 14 days by artificial media assay.
Test [6] concerns Botrytis cinerea. Briefly: Fungicidal activity against Botryotinia fuckeliana grown on compound supplemented artificial media assessed as control of disease or pathogen at 20 ppm measured after 5 to 14 days by artificial media assay.
For test [7], the system named is Botrytis cinerea. The test is described as follows: Fungicidal activity against Botryotinia fuckeliana grown on compound supplemented artificial media assessed as control of disease or pathogen at 2 ppm measured after 5 to 14 days by artificial media assay.

`COC(=O)n1cc(-c2ocnc2Br)c2ccccc21`: the Activity (with Uromyces viciae-fabae; in the test on Pythium dissimile [1]; in the test on Pythium dissimile [2]; with Alternaria solani [3]; in test [4]; in the test on Alternaria solani [5]) was 0% throughout.

`COCC(=O)n1cc(-c2ocnc2Br)c2ccccc21`: the Activity in the test with Uromyces viciae-fabae is on record as 77%; in the test on Pythium dissimile [1], 77%; in the test with Pythium dissimile [2], 0%; in the test on Botrytis cinerea [6] it was 99%; in the test with Alternaria solani [3], 0%; in test [4], 0%. Also, the Activity in the test on Botrytis cinerea [7] is 0%; in the test with Alternaria solani [5], 99%.

For the molecule `Brc1ncoc1-c1cn(CC2CC2)c2ccccc12`, the Activity came to 0% in the test on Uromyces viciae-fabae; 55% in the test with Pythium dissimile [1]; 0% in the test on Pythium dissimile [2]; 0% with Botrytis cinerea [6]; 0% in the test on Alternaria solani [3]; 0% in test [4]. Further, the Activity with Botrytis cinerea [7] and in the test on Alternaria solani [5] was 0% each time.

On to `CCS(=O)(=O)n1cc(-c2ocnc2Cl)c2ccccc21`, for which the Activity in the test on Uromyces viciae-fabae was 55%; with Pythium dissimile [1] it was 27%; in the test with Pythium dissimile [2], 0%; in the test on Botrytis cinerea [6] it was 0%; in the test with Alternaria solani [3], 0%; in test [4], 0%. Moreover, the Activity in the test with Botrytis cinerea [7] and in the test on Alternaria solani [5] was 0% each time.

With `O=C(CCl)n1cc(-c2ocnc2Cl)c2ccccc21`, the Activity in the test with Uromyces viciae-fabae is on record as 49%; with Pythium dissimile [1], 99%; with Pythium dissimile [2], 0%; in the test with Botrytis cinerea [6], 99%; with Alternaria solani [3], 0%; in test [4], 0%. Besides, the Activity in the test with Botrytis cinerea [7] came to 0%; in the test with Alternaria solani [5], 55%.

Regarding `O=C(C(Cl)Cl)n1cc(-c2ocnc2Cl)c2ccccc21`, the Activity in the test on Uromyces viciae-fabae was found to be 0%; in the test on Pythium dissimile [1], 99%; in the test with Pythium dissimile [2] it was 0%; with Botrytis cinerea [6] it was 99%; in the test on Alternaria solani [3], 0%; in test [4] it was 0%. Moreover, the Activity in the test on Botrytis cinerea [7] came out at 0%; with Alternaria solani [5], 99%.

On to `O=C(n1cc(-c2ocnc2Cl)c2ccccc21)C(Cl)(Cl)Cl`, for which the Activity in the test on Uromyces viciae-fabae is on record as 55%; in the test with Pythium dissimile [1] it was 99%; in the test on Pythium dissimile [2], 0%; with Botrytis cinerea [6] it was 99%; with Alternaria solani [3], 0%; in test [4] it was 0%. Moreover, the Activity with Botrytis cinerea [7] was 0%; in the test on Alternaria solani [5] it was 99%.

Consider `CC(Cl)C(=O)n1cc(-c2ocnc2Cl)c2ccccc21` (stereo unspecified), for which the Activity came to 55% in the test with Uromyces viciae-fabae; 0% in the test on Pythium dissimile [1]; 0% with Pythium dissimile [2]; 0% in the test on Botrytis cinerea [6]; 0% in the test on Alternaria solani [3]; 0% in test [4]. Moreover, the Activity in the test with Botrytis cinerea [7] is 0%; with Alternaria solani [5] it was 55%.

On to `COC(=O)n1cc(-c2ocnc2Cl)c2ccccc21`, for which the Activity (in the test with Uromyces viciae-fabae; with Pythium dissimile [1]; with Pythium dissimile [2]; in the test on Alternaria solani [3]; in test [4]; in the test on Alternaria solani [5]) was 0% each time.

As for `COCC(=O)n1cc(-c2ocnc2Cl)c2ccccc21`, the Activity stood at 55% with Uromyces viciae-fabae; 55% in the test with Pythium dissimile [1]; 0% in the test on Pythium dissimile [2]; 77% in the test with Botrytis cinerea [6]; 0% in the test with Alternaria solani [3]; 0% in test [4]. Besides, the Activity in the test with Botrytis cinerea [7] is 0%; in the test with Alternaria solani [5] it was 99%.

In the case of `CCOC(=O)Cn1cc(-c2ocnc2Cl)c2ccccc21`, the Activity (in the test on Uromyces viciae-fabae; with Pythium dissimile [1]; in the test on Pythium dissimile [2]; in the test with Botrytis cinerea [6]; in the test on Alternaria solani [3]; in test [4]) was 0% in each case. In addition, the Activity in the test on Botrytis cinerea [7] and in the test on Alternaria solani [5] was 0% in each case.

Take `CCOC(=O)C(=O)n1cc(-c2ocnc2Cl)c2ccccc21`: the Activity worked out at 0% in the test with Uromyces viciae-fabae; 77% with Pythium dissimile [1]; 0% in the test on Pythium dissimile [2]; 99% in the test with Botrytis cinerea [6]; 0% with Alternaria solani [3]; 33% in test [4]. The Activity with Botrytis cinerea [7] is listed as 0%; with Alternaria solani [5], 99%.

Turning to `Fc1ccc(Cn2cc(-c3ocnc3Cl)c3ccccc32)c(F)c1`, the Activity came to 27% in the test on Uromyces viciae-fabae; 0% in the test with Pythium dissimile [1]; 0% with Pythium dissimile [2]; 0% in the test with Botrytis cinerea [6]; 0% in the test with Alternaria solani [3]; 0% in test [4]. Also, the Activity with Botrytis cinerea [7] and with Alternaria solani [5] was 0% each time.

Regarding `Clc1ncoc1-c1cn(CC2CO2)c2ccccc12` (stereo unspecified), the Activity turned out to be 77% in the test on Uromyces viciae-fabae; 0% with Pythium dissimile [1]; 0% in the test with Pythium dissimile [2]; 0% with Botrytis cinerea [6]; 0% in the test with Alternaria solani [3]; 0% in test [4]. Also, the Activity with Botrytis cinerea [7] and in the test with Alternaria solani [5] was 0% in each case.

For the molecule `Clc1ncoc1-c1cn(CC2CC2)c2ccccc12`, the Activity with Uromyces viciae-fabae is given as 55%; with Pythium dissimile [1], 99%; with Pythium dissimile [2], 0%; in the test with Botrytis cinerea [6], 0%; in the test on Alternaria solani [3], 0%; in test [4] it was 33%. The Activity in the test with Botrytis cinerea [7] and in the test with Alternaria solani [5] was 0% throughout.

As for `Cn1cc(-c2ocnc2Br)c2ccccc21`, the Activity is listed as 55% in the test with Uromyces viciae-fabae; 0% in the test on Pythium dissimile [1]; 0% in the test on Pythium dissimile [2]; 0% in the test with Botrytis cinerea [6]; 0% with Alternaria solani [3]; 0% in test [4]. The Activity in the test with Botrytis cinerea [7] and in the test on Alternaria solani [5] was 0% throughout.

For `CCn1cc(-c2ocnc2Br)c2ccccc21`, the Activity was found to be 99% with Uromyces viciae-fabae; 55% in the test with Pythium dissimile [1]; 49% with Pythium dissimile [2]; 0% with Botrytis cinerea [6]; 0% in the test on Alternaria solani [3]; 0% in test [4]. In addition, the Activity with Botrytis cinerea [7] turned out to be 0%; in the test with Alternaria solani [5] it was 55%.

As for `C=CCn1cc(-c2ocnc2Br)c2ccccc21`, the Activity with Uromyces viciae-fabae stood at 49%; in the test on Pythium dissimile [1], 0%; in the test on Pythium dissimile [2], 0%; in the test with Botrytis cinerea [6], 27%; with Alternaria solani [3], 0%; in test [4] it was 18%. Moreover, the Activity in the test on Botrytis cinerea [7] and in the test with Alternaria solani [5] was 0% in each case.

For `ClC(Cl)=CCn1cc(-c2ocnc2Br)c2ccccc21`, the Activity (with Uromyces viciae-fabae; in the test on Pythium dissimile [1]; in the test with Pythium dissimile [2]; in the test on Botrytis cinerea [6]; in the test on Alternaria solani [3]; in test [4]) was 0% each time. The Activity in the test with Botrytis cinerea [7] and in the test on Alternaria solani [5] was 0% throughout.

As for `CC(=O)n1cc(-c2ocnc2Br)c2ccccc21`, the Activity (in the test with Uromyces viciae-fabae; in the test on Pythium dissimile [1]; in the test with Pythium dissimile [2]; in the test on Botrytis cinerea [6]; in the test with Alternaria solani [3]; in test [4]) was 0% throughout. Besides, the Activity with Botrytis cinerea [7] and in the test on Alternaria solani [5] was 0% each time.

In the case of `CCC(=O)n1cc(-c2ocnc2Br)c2ccccc21`, the Activity (in the test on Uromyces viciae-fabae; in the test with Pythium dissimile [1]; in the test on Pythium dissimile [2]; with Botrytis cinerea [6]; with Alternaria solani [3]; in test [4]) was 0% in each case. The Activity in the test with Botrytis cinerea [7] and with Alternaria solani [5] was 0% in each case.

Turning to `CCS(=O)(=O)n1cc(-c2ocnc2Br)c2ccccc21`, the Activity (in the test with Uromyces viciae-fabae; with Pythium dissimile [1]; with Pythium dissimile [2]; with Botrytis cinerea [6]; with Alternaria solani [3]; in test [4]) was 0% throughout. Moreover, the Activity in the test with Botrytis cinerea [7] and in the test with Alternaria solani [5] was 0% in each case.

`O=C(CCl)n1cc(-c2ocnc2Br)c2ccccc21`: the Activity was 49% with Uromyces viciae-fabae; 99% in the test on Pythium dissimile [1]; 0% with Pythium dissimile [2]; 99% in the test with Botrytis cinerea [6]; 27% in the test on Alternaria solani [3]; 18% in test [4]. The values for the Activity with Botrytis cinerea [7] and in the test on Alternaria solani [5] were 0% and 99%, respectively.

As for `O=C(C(Cl)Cl)n1cc(-c2ocnc2Br)c2ccccc21`, the Activity in the test on Uromyces viciae-fabae was determined as 27%; in the test on Pythium dissimile [1], 77%; with Pythium dissimile [2] it was 0%; in the test with Botrytis cinerea [6] it was 99%; with Alternaria solani [3], 0%; in test [4], 0%. Also, the Activity in the test with Botrytis cinerea [7] is recorded as 0%; with Alternaria solani [5], 99%.

Consider `CC(Cl)C(=O)n1cc(-c2ocnc2Br)c2ccccc21` (stereo unspecified), for which the Activity in the test on Uromyces viciae-fabae is on record as 27%; in the test on Pythium dissimile [1] it was 0%; in the test on Pythium dissimile [2] it was 0%; with Botrytis cinerea [6] it was 0%; in the test with Alternaria solani [3], 0%; in test [4], 0%. Also, the Activity stood at 0% in the test with Botrytis cinerea [7] and 55% in the test on Alternaria solani [5].
